Experimental data from the supplement of paper PMC8024199.
± gives the standard deviation of the averaged measurements.

What was measured:
Assay in all cases: drug sensitivity score (DSS) (DSS score); higher = more sensitive (stronger growth inhibition); extreme values may be limits of the assay
[1] = tested on: Ba/F3 P210-BCR-ABL1 RUNX1-/mut (mouse)
Procedure, shortened: (§1)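 Mouse Ba/F3 cells carrying P210-BCR-ABL1, CRISPR/Cas9-edited at runx1 exon 4 or edited-control clones, were screened against a 528-compound library on pre-printed 384-well plates. Each compound ran at five concentrations spanning a 10,000-fold range, with 10,000 cells per well in RPMI with 10% FBS for 72 h at 37 °C and 5% CO2. CellTiter-Glo luminescence was scaled between vehicle and positive-control wells. A drug sensitivity score summarised each dose-response, averaged over two replicates.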

[2] = tested on: Ba/F3 P210-BCR-ABL1 RUNX1-/- (mouse)
Procedure, shortened: as §1

[3] = tested on: Ba/F3 P210-BCR-ABL1 RUNX1wt/wt control (mouse)
Procedure, shortened: as §1

Cn1ncc(Cl)c1-c1cc(C(=O)N[C@H](CN)Cc2cccc(F)c2)sc1Cl [Afuresertib]
drug sensitivity score [1]: 1.6 ± 2.3
drug sensitivity score [2]: 1.05 ± 1.1
drug sensitivity score [3]: 0

COc1cccc2c1C(=O)c1c(O)c3c(c(O)c1C2=O)C[C@@](O)(/C(CO)=N/NC(=O)CCCCCN1C(=O)C=CC1=O)C[C@@H]3O[C@H]1C[C@H](N)[C@H](O)[C@H](C)O1 [Aldoxorubicin]
drug sensitivity score [1]: 18.1 ± 0.35
drug sensitivity score [2]: 20.3 ± 0.71
drug sensitivity score [3]: 11.2 ± 0.35

CCc1cc2c(cc1N1CCC(N3CCOCC3)CC1)C(C)(C)c1[nH]c3cc(C#N)ccc3c1C2=O [Alectinib]
drug sensitivity score [1]: 0.7 ± 0.99
drug sensitivity score [2]: 1.05 ± 0.35
drug sensitivity score [3]: 0

Cc1nc(NC(=O)N2CCC[C@H]2C(N)=O)sc1-c1ccnc(C(C)(C)C(F)(F)F)c1 [Alpelisib]
drug sensitivity score [1]: 3 ± 1.8
drug sensitivity score [2]: 2.5 ± 0.57
drug sensitivity score [3]: 0.75 ± 1.1

O=C(Nc1cc(Oc2cc(F)c(NC(=O)C3(C(=O)Nc4ccc(F)cc4)CC3)cc2F)ccn1)C1CC1 [Altiratinib]
drug sensitivity score [1]: 6.8 ± 0.85
drug sensitivity score [2]: 10.8
drug sensitivity score [3]: 5.45 ± 0.21

CCN(CC)CCNC(=O)c1c(C)[nH]c(/C=C2\C(=O)Nc3ccc(-c4csc(-c5ccccc5)n4)cc32)c1C [Amcasertib]
drug sensitivity score [1]: 5.35 ± 7.6
drug sensitivity score [2]: 5.95 ± 1.6
drug sensitivity score [3]: 0

COc1cc(NS(C)(=O)=O)ccc1Nc1c2ccccc2nc2ccccc12 [Amsacrine]
drug sensitivity score [1]: 25.3 ± 0.71
drug sensitivity score [2]: 35.3 ± 2.7
drug sensitivity score [3]: 21.6 ± 0.85

S=C(NCc1ccc2c(c1)OCO2)N1CCN(c2ncnc3c2oc2ccccc23)CC1 [Amuvatinib]
drug sensitivity score [1]: 8.45 ± 1.9
drug sensitivity score [2]: 11.3 ± 1.3
drug sensitivity score [3]: 14.9 ± 1.1

CNC(=O)c1ccc(N2C(=S)N(c3cnc(C#N)c(C(F)(F)F)c3)C(=O)C23CCC3)cc1F [Apalutamide]
drug sensitivity score [1]: 0
drug sensitivity score [2]: 0
drug sensitivity score [3]: 0

N#CC1(c2ccc(NC(=O)c3cccnc3NCc3ccncc3)cc2)CCCC1 [Apatinib]
drug sensitivity score [1]: 0
drug sensitivity score [2]: 0.4 ± 0.57
drug sensitivity score [3]: 0

O=C(Nc1ccc(OC(F)(F)Cl)cc1)c1cnc(N2CC[C@@H](O)C2)c(-c2cc[nH]n2)c1 [Asciminib]
drug sensitivity score [1]: 10.7 ± 4.5
drug sensitivity score [2]: 31.85 ± 0.071
drug sensitivity score [3]: 18.8 ± 0.71

CC(C)c1c(C(=O)Nc2ccccc2)c(-c2ccccc2)c(-c2ccc(F)cc2)n1CC[C@@H](O)C[C@@H](O)CC(=O)O [Atorvastatin]
drug sensitivity score [1]: 0.1 ± 0.14
drug sensitivity score [2]: 0.65 ± 0.92
drug sensitivity score [3]: 0

CC(=O)OC[C@H]1O[C@@H]([S-])[C@H](OC(C)=O)[C@@H](OC(C)=O)[C@@H]1OC(C)=O.CCP(CC)CC.[Au+] [Auranofin]
drug sensitivity score [1]: 6.15 ± 4.5
drug sensitivity score [2]: 8.5 ± 0.85
drug sensitivity score [3]: 2.8 ± 0.71

Cc1cc(-c2nc(-c3ccc(OC(F)(F)F)cc3)no2)nn1Cc1ccnc(N2CCN(C3CC3)CC2)c1 [BAY 87-2243]
drug sensitivity score [1]: 3.25 ± 1.5
drug sensitivity score [2]: 4.6 ± 2.3
drug sensitivity score [3]: 4.9 ± 0.57

Nc1nc(Nc2ccc3c(c2)CC[C@@H](N2CCCC2)CC3)nn1-c1cc2c(nn1)-c1ccccc1CCC2 [BGB324]
drug sensitivity score [1]: 6.35 ± 1.2
drug sensitivity score [2]: 7.3 ± 0.57
drug sensitivity score [3]: 5.65 ± 0.21

O=C1CCc2c(Oc3ccc4c(c3)[C@@H]3[C@H](O4)[C@H]3c3nc4cc(C(F)(F)F)ccc4[nH]3)ccnc2N1 [BGB-283]
drug sensitivity score [1]: 16.9
drug sensitivity score [2]: 21.8 ± 0.64
drug sensitivity score [3]: 16 ± 0.14

CC1(C)C(C(=O)Nc2ccc(S(=O)(=O)c3ccc(NC(=O)C4C(C)(C)C4(C)C)cc3)cc2)C1(C)C [BRD7116]
drug sensitivity score [1]: 0.05 ± 0.071
drug sensitivity score [2]: 3.75 ± 2.6
drug sensitivity score [3]: 0

O=C(Nc1cccc(Nc2ncc(Br)c(NCCc3cnc[nH]3)n2)c1)N1CCCC1 [BX-912]
drug sensitivity score [1]: 7.25 ± 1.1
drug sensitivity score [2]: 8.9 ± 0.42
drug sensitivity score [3]: 1.85 ± 0.071

Cc1ccc(NC(=O)c2ccc(CN3CC[C@H](N(C)C)C3)c(C(F)(F)F)c2)cc1Nc1nccc(-c2cncnc2)n1 [Bafetinib]
drug sensitivity score [1]: 19.9 ± 1.5
drug sensitivity score [2]: 26.55 ± 0.21
drug sensitivity score [3]: 16.3

CCS(=O)(=O)N1CC(CC#N)(n2cc(-c3ncnc4[nH]ccc34)cn2)C1 [Baricitinib]
drug sensitivity score [1]: 0
drug sensitivity score [2]: 0
drug sensitivity score [3]: 0

N#CC(c1ccnc(OCc2ccc(CN3CCOCC3)cc2)n1)c1nc2ccccc2s1 (stereo not drawn) [Bentamapimod]
drug sensitivity score [1]: 0.75 ± 1.1
drug sensitivity score [2]: 2.55 ± 1.6
drug sensitivity score [3]: 4.25 ± 0.49

CC(O)(CS(=O)(=O)c1ccc(F)cc1)C(=O)Nc1ccc(C#N)c(C(F)(F)F)c1 (stereo not drawn) [Bicalutamide]
drug sensitivity score [1]: 1.15 ± 1.6
drug sensitivity score [2]: 0.25 ± 0.35
drug sensitivity score [3]: 0

Cn1cnc2c(F)c(Nc3ccc(Br)cc3F)c(C(=O)NOCCO)cc21 [Binimetinib]
drug sensitivity score [1]: 0.3 ± 0.42
drug sensitivity score [2]: 3.3 ± 0.42
drug sensitivity score [3]: 0

Cc1sc2c(c1C)C(c1ccc(Cl)cc1)=N[C@@H](CC(=O)Nc1ccc(O)cc1)c1nnc(C)n1-2 [Birabresib]
drug sensitivity score [1]: 24.6 ± 3
drug sensitivity score [2]: 24.1 ± 1.3
drug sensitivity score [3]: 15.2 ± 0.49

CC[C@H](NC(=O)[C@H](C)NC)C(=O)N1C[C@@H](O)C[C@H]1Cc1c(-c2[nH]c3cc(F)ccc3c2C[C@@H]2C[C@H](O)CN2C(=O)[C@H](CC)NC(=O)[C@H](C)NC)[nH]c2cc(F)ccc12 [Birinapant]
drug sensitivity score [1]: 4.15 ± 5.2
drug sensitivity score [2]: 14 ± 5.5
drug sensitivity score [3]: 6.15 ± 0.071

COc1cc(N2CCC(N3CCN(C)CC3)CC2)ccc1Nc1ncc(Cl)c(Nc2ccccc2P(C)(C)=O)n1 [Brigatinib]
drug sensitivity score [1]: 2.55 ± 3.6
drug sensitivity score [2]: 4.95 ± 0.35
drug sensitivity score [3]: 0.1 ± 0.14

Cc1cc2c(F)c(Oc3ncnn4cc(OC[C@@H](C)O)c(C)c34)ccc2[nH]1 [Brivanib]
drug sensitivity score [1]: 0
drug sensitivity score [2]: 0
drug sensitivity score [3]: 0

Nc1cc(C(F)(F)F)c(-c2cc(N3CCOCC3)nc(N3CCOCC3)n2)cn1 [Buparlisib]
drug sensitivity score [1]: 8.7 ± 2.3
drug sensitivity score [2]: 8.6 ± 0.42
drug sensitivity score [3]: 4.5 ± 0.57

Cc1nc2cccc(N)c2c(=O)n1C1CCC(=O)NC1=O (stereo not drawn) [CC122]
drug sensitivity score [1]: 0
drug sensitivity score [2]: 0
drug sensitivity score [3]: 0

CCN1C(=O)CNc2ncc(-c3ccc(-c4nc[nH]n4)nc3C)nc21 [CC-115]
drug sensitivity score [1]: 12.8 ± 1.9
drug sensitivity score [2]: 12.6 ± 2.9
drug sensitivity score [3]: 7.65 ± 0.21

CO[C@H]1CC[C@H](N2C(=O)CNc3ncc(-c4ccc(C(C)(C)O)nc4)nc32)CC1 [CC-223]
drug sensitivity score [1]: 6.65 ± 2.2
drug sensitivity score [2]: 7.25 ± 0.64
drug sensitivity score [3]: 2.45 ± 0.071

COc1cc(C)[nH]c(=O)c1CNC(=O)c1c(C)n([C@H](C)C2CCOCC2)c2ccccc12 [CPI-360]
drug sensitivity score [1]: 0
drug sensitivity score [2]: 0
drug sensitivity score [3]: 0

Cc1noc2c1-c1ccccc1C(c1ccc(Cl)cc1)=N[C@H]2CC(N)=O [CPI-0610]
drug sensitivity score [1]: 19.1 ± 4.6
drug sensitivity score [2]: 19.6 ± 1.1
drug sensitivity score [3]: 14 ± 0.28

O=C(O)CCCCC(CCSCc1ccccc1)SCc1ccccc1 (stereo not drawn) [CPI-613]
drug sensitivity score [1]: 0
drug sensitivity score [2]: 0
drug sensitivity score [3]: 0

CN(C)c1cc2c(cc1Sc1nc3c(N)nccc3n1CCNCC(C)(C)C)OCO2 [CUDC-305]
drug sensitivity score [1]: 16.9 ± 0.21
drug sensitivity score [2]: 18.3 ± 1.6
drug sensitivity score [3]: 17.1 ± 0.21

COc1ccc(-c2nc(N3CCOCC3)c3sc(CN(C)c4ncc(C(=O)NO)cn4)cc3n2)cn1 [CUDC-907]
drug sensitivity score [1]: 43.65 ± 0.35
drug sensitivity score [2]: 40.9 ± 0.85
drug sensitivity score [3]: 39 ± 0.57

CO[C@H]1C(=O)[C@]2(C)[C@@H](OC)C[C@H]3OC[C@@]3(OC(C)=O)[C@H]2[C@H](OC(=O)c2ccccc2)[C@]2(O)C[C@H](OC(=O)[C@H](O)[C@@H](NC(=O)OC(C)(C)C)c3ccccc3)C(C)=C1C2(C)C [Cabazitaxel]
drug sensitivity score [1]: 26.2 ± 3.5
drug sensitivity score [2]: 35.9 ± 1.4
drug sensitivity score [3]: 13.55 ± 0.071

COc1cc2nccc(Oc3ccc(NC(=O)C4(C(=O)Nc5ccc(F)cc5)CC4)cc3)c2cc1OC [Cabozantinib]
drug sensitivity score [1]: 1.8 ± 1.6
drug sensitivity score [2]: 4.8 ± 0.85
drug sensitivity score [3]: 0

CNC(=O)c1ccc(-c2cnc3ncc(Cc4ccc5ncccc5c4)n3n2)cc1F [Capmatinib]
drug sensitivity score [1]: 0
drug sensitivity score [2]: 0.2 ± 0.28
drug sensitivity score [3]: 0.25 ± 0.35

O=C(O)C1(C(=O)O)CCC1.[NH2-].[NH2-].[Pt+2] [Carboplatin]
drug sensitivity score [1]: 6.9 ± 1.8
drug sensitivity score [2]: 6.65 ± 1.8
drug sensitivity score [3]: 3.45 ± 0.21

COc1cc2c(Oc3ccc4[nH]c(C)cc4c3F)ncnc2cc1OCCCN1CCCC1 [Cediranib]
drug sensitivity score [1]: 0
drug sensitivity score [2]: 0
drug sensitivity score [3]: 0

CCS(=O)(=O)N1CCN(c2ccc(Nc3ncc(C(N)=O)c(NC4CC4)n3)cc2)CC1 [Cerdulatinib]
drug sensitivity score [1]: 13.1 ± 1.6
drug sensitivity score [2]: 14.8 ± 0.64
drug sensitivity score [3]: 9.5 ± 0.42

Cc1cc(Nc2ncc(Cl)c(Nc3ccccc3S(=O)(=O)C(C)C)n2)c(OC(C)C)cc1C1CCNCC1 [Ceritinib]
drug sensitivity score [1]: 0.75 ± 1.1
drug sensitivity score [2]: 0.8 ± 1.1
drug sensitivity score [3]: 1.35 ± 0.78

CCN(CC)CCCC(C)Nc1ccnc2cc(Cl)ccc12 (stereo not drawn) [Chloroquine]
drug sensitivity score [1]: 14.9 ± 5.6
drug sensitivity score [2]: 13.2 ± 5.2
drug sensitivity score [3]: 5.8 ± 0.28

CC(C)[C@H]1C(=O)N[C@@H](CCCNC(=N)N)C(=O)NCC(=O)N[C@@H](CC(=O)O)C(=O)N[C@H](Cc2ccccc2)C(=O)N1C [Cilengitide]
drug sensitivity score [1]: 0
drug sensitivity score [2]: 0
drug sensitivity score [3]: 0

N.N.[Cl][Pt][Cl] [Cisplatin]
drug sensitivity score [1]: 7 ± 1.6
drug sensitivity score [2]: 6.3 ± 1.4
drug sensitivity score [3]: 5.5 ± 0.14
